Target: T1, human Nav1.8 (Homo sapiens, UniProt Q9Y5Y9)
T1 construct: expressed in transfected cells; host or cells: HEK293 (HEK293-Nav1.8)
Assay: Nav1.8 sodium channels assay, QPatch 48 HTX electrophysiology in HEK293-Nav1.8 cells
Assay type: cell-based
Conditions: Table 1; HEK293-Nav1.8, QPatch 48 HTX, half inactivation state voltage protocol (V1/2); single run or average of two or more runs; read-out: Nav1.8 pIC50 (converted)
Method in brief: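 IC50 came from 6-8 point curves of P2 current amplitude, normalized to baseline and a positive reference, and corrected for run-down using vehicle-only wells. Automated patch clamp used HEK293-Nav1.8 (with Navβ1 and TREK1) at pH 7.4 outside and CsF-based solution inside. An 8 s inactivating step at −46 mV preceded the 0 mV test pulse, repeated at 0.07 Hz.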

T1 sequence (Q9Y5Y9 whole entry): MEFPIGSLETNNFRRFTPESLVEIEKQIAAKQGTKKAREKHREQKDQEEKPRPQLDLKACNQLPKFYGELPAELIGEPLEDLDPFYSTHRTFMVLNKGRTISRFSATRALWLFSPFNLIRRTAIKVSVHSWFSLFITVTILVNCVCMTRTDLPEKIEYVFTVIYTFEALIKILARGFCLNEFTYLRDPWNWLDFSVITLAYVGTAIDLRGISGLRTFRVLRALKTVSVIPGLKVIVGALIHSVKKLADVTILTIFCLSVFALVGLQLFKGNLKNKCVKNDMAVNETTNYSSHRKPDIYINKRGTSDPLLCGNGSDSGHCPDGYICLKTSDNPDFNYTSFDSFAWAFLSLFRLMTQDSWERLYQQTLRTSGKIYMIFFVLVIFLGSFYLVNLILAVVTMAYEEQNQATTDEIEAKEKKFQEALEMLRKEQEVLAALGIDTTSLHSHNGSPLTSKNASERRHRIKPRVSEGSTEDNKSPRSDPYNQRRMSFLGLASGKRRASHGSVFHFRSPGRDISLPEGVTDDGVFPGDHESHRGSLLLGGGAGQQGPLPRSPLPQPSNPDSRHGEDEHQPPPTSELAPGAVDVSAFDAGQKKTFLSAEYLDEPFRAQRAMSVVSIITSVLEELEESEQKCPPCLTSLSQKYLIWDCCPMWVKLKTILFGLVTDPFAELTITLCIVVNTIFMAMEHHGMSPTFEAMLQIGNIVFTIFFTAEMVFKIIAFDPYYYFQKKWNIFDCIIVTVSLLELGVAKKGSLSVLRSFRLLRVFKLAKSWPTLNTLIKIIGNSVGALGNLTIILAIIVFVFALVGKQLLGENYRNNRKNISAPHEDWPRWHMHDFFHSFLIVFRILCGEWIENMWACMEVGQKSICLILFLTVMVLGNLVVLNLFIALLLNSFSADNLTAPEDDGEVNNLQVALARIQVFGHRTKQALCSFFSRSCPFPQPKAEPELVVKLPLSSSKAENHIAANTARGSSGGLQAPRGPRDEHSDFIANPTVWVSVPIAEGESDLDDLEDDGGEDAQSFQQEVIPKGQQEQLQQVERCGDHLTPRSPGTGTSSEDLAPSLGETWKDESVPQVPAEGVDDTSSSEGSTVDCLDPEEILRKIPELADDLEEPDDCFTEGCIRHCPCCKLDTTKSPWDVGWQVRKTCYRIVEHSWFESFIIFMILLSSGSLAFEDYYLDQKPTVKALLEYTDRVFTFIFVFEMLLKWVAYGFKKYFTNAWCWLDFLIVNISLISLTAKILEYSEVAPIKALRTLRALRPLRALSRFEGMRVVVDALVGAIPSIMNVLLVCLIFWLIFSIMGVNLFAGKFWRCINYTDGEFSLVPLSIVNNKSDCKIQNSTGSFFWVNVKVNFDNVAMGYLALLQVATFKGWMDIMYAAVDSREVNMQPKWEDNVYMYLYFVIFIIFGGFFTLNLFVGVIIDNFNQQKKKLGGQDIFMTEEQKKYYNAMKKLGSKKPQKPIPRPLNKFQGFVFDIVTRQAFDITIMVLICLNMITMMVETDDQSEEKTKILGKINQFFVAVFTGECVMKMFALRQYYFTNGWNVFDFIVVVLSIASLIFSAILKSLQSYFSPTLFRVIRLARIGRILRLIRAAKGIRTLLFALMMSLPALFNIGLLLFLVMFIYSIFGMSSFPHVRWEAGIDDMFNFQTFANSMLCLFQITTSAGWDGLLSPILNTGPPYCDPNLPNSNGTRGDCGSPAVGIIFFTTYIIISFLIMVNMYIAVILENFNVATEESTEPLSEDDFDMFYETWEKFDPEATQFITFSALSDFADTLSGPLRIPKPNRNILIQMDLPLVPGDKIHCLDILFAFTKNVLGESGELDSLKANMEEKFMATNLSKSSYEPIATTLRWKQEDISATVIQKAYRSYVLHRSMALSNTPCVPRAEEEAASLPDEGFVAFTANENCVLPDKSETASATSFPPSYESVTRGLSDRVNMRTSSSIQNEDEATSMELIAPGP
T1 sequence (Q07699 19-218 partner): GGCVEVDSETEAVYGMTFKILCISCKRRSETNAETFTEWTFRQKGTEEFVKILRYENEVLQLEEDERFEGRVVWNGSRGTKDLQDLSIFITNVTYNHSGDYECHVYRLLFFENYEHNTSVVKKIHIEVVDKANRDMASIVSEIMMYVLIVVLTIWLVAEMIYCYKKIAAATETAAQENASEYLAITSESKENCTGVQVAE

Row | Structure (SMILES) | IC50 [nM]
1 | O=C1c2ccc(C(F)(F)F)cc2N(c2ccc(F)cc2)CN1c1ccc(=O)[nH]c1 [drawing 262, 1-(4-fluorophenyl)-3-(6-oxo-1,6-dihydropyridin-3-yl)-7-(trifluoromethyl)-2,3-dihydroquinazolin-4(1H)-one] | 398
2 | O=C1c2ccc(C(F)(F)F)cc2N(C2CCCCC2)CN1c1ccc(=O)[nH]c1 [drawing 263, 1-cyclohexyl-3-(6-oxo-1,6-dihydropyridin-3-yl)-7-(trifluoromethyl)-2,3-dihydroquinazolin-4(1H)-one] | 6310
3 | Cc1cc(F)ccc1N1CN(c2ccc(=O)[nH]c2)C(=O)c2cc(C(F)(F)F)ccc21 [drawing 269, 1-(4-fluoro-2-methylphenyl)-3-(6-oxo-1,6-dihydropyridin-3-yl)-6-(trifluoromethyl)-2,3-dihydroquinazolin-4(1H)-one] | 316
4 | Cc1cc(F)ccc1N1CN(c2c[nH]c(=O)c(C)c2)C(=O)c2ccc(C(F)(F)F)cc21 [drawing 271, 1-(4-fluoro-2-methylphenyl)-3-(5-methyl-6-oxo-1,6-dihydropyridin-3-yl)-7-(trifluoromethyl)-2,3-dihydroquinazolin-4(1H)-one] | 631
5 | O=C1c2ccc(C(F)(F)F)cc2N(Cc2ccc(F)cc2)CN1c1ccc(=O)[nH]c1 [drawing 272, 1-(4-fluorobenzyl)-3-(6-oxo-1,6-dihydropyridin-3-yl)-7-(trifluoromethyl)-2,3-dihydroquinazolin-4(1H)-one] | 7940
6 | Cc1cc(OC(F)(F)F)ccc1N1CN(c2ccc(=O)[nH]c2C)C(=O)c2cc(C(F)(F)F)cnc21 [drawing 274, 1-(2-methyl-4-(trifluoromethoxy)phenyl)-3-(2-methyl-6-oxo-1,6-dihydropyridin-3-yl)-6-(trifluoromethyl)-2,3-dihydropyrido[2,3-d]pyrimidin-4(1H)-one] | 25.1

Continued, values first:

Row | IC50 [nM] | Structure (SMILES)
7 | 316 | COc1cc(F)ccc1N1CN(c2ccc(=O)[nH]c2)C(=O)c2ccc(C(F)(F)F)cc21 [drawing 264, 1-(4-fluoro-2-methoxyphenyl)-3-(6-oxo-1,6-dihydropyridin-3-yl)-7-(trifluoromethyl)-2,3-dihydroquinazolin-4(1H)-one]
8 | 2000 | Cc1cc(F)ccc1N1CN(c2ccc(=O)n(C)c2)C(=O)c2ccc(C(F)(F)F)cc21 [drawing 265]
9 | 158 | Cc1cc(F)ccc1N1CN(c2ccc(=O)[nH]c2C)C(=O)c2cc(C(F)(F)F)cnc21 [drawing 266, 1-(4-fluoro-2-methylphenyl)-3-(2-methyl-6-oxo-1,6-dihydropyridin-3-yl)-6-(trifluoromethyl)-2,3-dihydropyrido[2,3-d]pyrimidin-4(1H)-one]
10 | 2510 | Cc1cc(F)ccc1N1CN(c2ccc(=O)[nH]c2)C(=O)c2c1cccc2C(F)(F)F [drawing 267, 1-(4-fluoro-2-methylphenyl)-3-(6-oxo-1,6-dihydropyridin-3-yl)-5-(trifluoromethyl)-2,3-dihydroquinazolin-4(1H)-one]
11 | 20 | Cc1cc(F)ccc1N1CN(c2ccc(=O)[nH]c2C)C(=O)c2ccc(C(F)(F)F)cc21 [drawing 268, 1-(4-fluoro-2-methylphenyl)-3-(2-methyl-6-oxo-1,6-dihydropyridin-3-yl)-7-(trifluoromethyl)-2,3-dihydroquinazolin-4(1H)-one]
12 | 2510 | Cc1cc(F)cc(C)c1N1CN(c2ccc(=O)[nH]c2)C(=O)c2ccc(C(F)(F)F)cc21 [drawing 270, 1-(4-fluoro-2,6-dimethylphenyl)-3-(6-oxo-1,6-dihydropyridin-3-yl)-7-(trifluoromethyl)-2,3-dihydroquinazolin-4(1H)-one]
13 | 398 | Cc1cc(=O)[nH]cc1N1CN(c2ccc(F)cc2C)c2cc(C(F)(F)F)ccc2C1=O [drawing 273, 1-(4-fluoro-2-methylphenyl)-3-(4-methyl-6-oxo-1,6-dihydropyridin-3-yl)-7-(trifluoromethyl)-2,3-dihydroquinazolin-4(1H)-one]
